From patent US6770478B2, “Erythrocytic cells and method for preserving cells” (The Regents of the University of California, priority 2000, dated 2004)
Several values for one entry are separate records, joined by “and”; a condition that tells them apart may be missing. Identical values can stand only once. Entries after “also recorded” stand apart in the source; their conditions may differ. Values belong to the compound of their own block, whether it stands above or below them.

What was measured:
platelets [1] = conditions: platelets cryopreserved with DMSO; cited from earlier work
erythrocyte membranes = experiment: FTIR membrane phase transitions of intact erythrocytes (CH2 symmetric stretch around 2850 cm^-1)
mesenchymal stem cells [2] = experiment: Lucifer yellow CH loading of mesenchymal stem cells, viability by trypan blue exclusion; format: cell-based, human; conditions: LYCH loading over 3.5 hours, 37° C.
Description: Lucifer Yellow CH-Loading. […] The pellet was split between two treatments.

human platelets = experiment: Loading of platelets with trehalose, quantified by anthrone reaction; format: cell-based; conditions: 37° C., after 2 hours (rapid linear uptake)
Experimental: Loading of Platelets with Trehalose. Washed platelets in a concentration of 1-2 10^9 platelets/ml were incubated at various temperatures in the presence of 1-20 mg/ml trehalose. Incubation temperatures were chosen from 4° C. to 37° C. Incubation times were varied from 0.5 to 4 hours. After incubation the platelet solutions were washed in buffer A two times (by centrifugation at 14,000 RPM for 20 s in a table centrifuge). Platelet counts were obtained on a coulter counter. Platelets were pelleted (45 S at 14,000 RPM) and sugars were extracted from the pellet using 80% methanol. The samples were heated for 30 minutes at 80° C. […] The amount of trehalose in the platelets was quantified using the anthrone reaction (Umbreit et al., Mamometric and Biochemical Techniques, 5th Edition, 1972). […] Then the samples were cooled on ice and the absorbance was measured at 620 nm on a Perkin Elmer spectrophotometer. The amount of platelet associated trehalose was determined using a standard curve of trehalose.
Quantification of Trehalose and LYCH Concentration. Uptake was calculated for each sample as micrograms of trehalose or LYCH per platelet. The internal trehalose concentration was calculated assuming a platelet radius of 1.2 μm and by assuming that 50% of the platelet volume is taken up by the cytosol (rest is membranes). […]

platelets [3] = experiment: Stability and morphology of platelets during trehalose incubation (microscopy, flow cytometric analysis); format: cell-based, human; conditions: 4 hours incubation at 37° C., 25 mM external trehalose
Experimental: The stability of the platelets during a 4 hours incubation period was studied using microscopy and flow cytometric analysis. […] No signs of microvesicle formation could be observed after 4 hours incubation, as can be judged by the stable relative proportion of microvesicle gated cells (less than 3%). The formation of microvesicles is usually considered as the first sign of platelet activation (Owners et al., Trans. Med. Rev., 8, 27-44, 1994). Characteristic antigens of platelet activation include: glycoprotein 53 (gp53, a lysosomal membrane marker), PECAM-1 (platelet endothelial cell adhesion molecule-1, an alpha granule constituent), and P-selection (an alpha granule membrane protein).

mesenchymal stem cells [4] = experiment: Growth curves of mesenchymal stem cells in presence of 90 mM trehalose; format: cell-based, human
Experimental: Growth Curves. MSCs were plated into 12-welled plates at approximately the same seeding density used for T-185 flasks in standard Osiris protocols (5900 cells/cm^2 with fluid volume of 0.189 mL/cm^2). Three wells for each condition at each time point were trypsinized and counted. Data for cells grown in the presence of trehalose were lost for the first two time points. FIG. 13 is a graph illustrating growth curves for the mesenchymal stem cells in the presence or absence of 90 mM trehalose with the open triangle data representing cells grown in standard medium for 24 hours, after which 90 mM trehalose was added.

erythrocyte ghosts = experiment: FTIR thermotropic response of erythrocyte ghosts; format: cell-based, human; conditions: MβCD treated ghosts
Experimental: Cells were incubated at 37° C. for one hour in the presence of 10 mM methyl-β-cyclodextrin (MβCD) in order to remove cholesterol from the plasma membranes. Erythrocyte ghosts were prepared.
FTIR Spectroscopy and Sample Preparation. […] Intact cells were cooled to −5° C., kept at this temperature for 15 minutes, and then rewarmed to determine the phase transitions. […] Four scans were accumulated for each spectrum between 3600-900 cm^−1 at 4 cm^−1 resolution.
Inverted second derivative spectra were normalized on the lipid […] 2850 cm^−1. Band positions were determined as described previously. The wavenumber (cm^−1) of the CH2 symmetric stretching vibration was plotted as a function of temperature. […] For the protein studies, the spectral region between 1600 and 1500 cm^−1 selected.

[5] = Table III, Example 11, five blood donors, standard error, 10 mM MβCD

Compound: C[S+](C)[O-] [DMSO, dimethyl sulfoxide]
overall responsiveness of frozen thawed platelets to various agonists compared with fresh platelets (platelets [1]): less than 35%

Compound: CC(C)c1c(C(=O)Nc2ccccc2)c(-c2ccccc2)c(-c2ccc(F)cc2)n1CC[C@@H](O)C[C@@H](O)CC(=O)O [LIPITOR]
total wavenumber excursion (from −5 to 45° C.) (erythrocyte membranes; erythrocytes of a blood donor who used LIPITOR, other donors 0.8): ~1.5 cm⁻¹

Compound: NNC(=O)NN1C(=O)c2cc(S(=O)(=O)O)cc3c(N)c(S(=O)(=O)O)cc(c23)C1=O [LYCH, lucifer yellow CH]
viability (mesenchymal stem cells [2]): ~70%

morphological changes of platelets (platelets [3]): No morphological changes
effect on cell count (mesenchymal stem cells [4]; after the third day): cell count started to drop significantly
Compound: OC[C@H]1O[C@H](O[C@H]2O[C@H](CO)[C@@H](O)[C@H](O)[C@H]2O)[C@H](O)[C@@H](O)[C@@H]1O [trehalose]
trehalose uptake (human platelets): 3.3×10^−10 mol/m^2s
effect on growth of the cells (mesenchymal stem cells [4]; up to the third day): did not interfere with growth; also recorded: does not interfere with the growth and viability

Compound: methyl-β-cyclodextrin [MβCD]
transition temperature, first transition (erythrocyte ghosts): 4 °C
transition temperature, fourth transition (erythrocyte ghosts): 30 °C
transition temperature, second transition (erythrocyte ghosts): 12 °C
transition temperature, third transition (erythrocyte ghosts): 20 °C
wavenumber excursion from −5 to 45° C. (erythrocyte membranes; Example 10, after cholesterol removal (control 0.7)): 2.9 cm⁻¹
wavenumber excursion from −5 to 45° C. (erythrocyte membranes; Example 11, after cholesterol removal (control 0.7)): 2.9 cm⁻¹
Cooperativity, Low Transition (erythrocyte membranes; Table II, Example 10, 1 mM MβCD, 37° C., one hour): 0.051 ± 0.004 cm^−1/° C.
Cooperativity, High Transition (erythrocyte membranes; [5]): 0.091 cm^−1/° C. and 0.091 ± 0.020 cm^−1/° C.
Cooperativity, Low Transition (erythrocyte membranes; [5]): 0.051 ± 0.004 cm^−1/° C.
Cooperativity, Middle Transition (erythrocyte membranes; [5]): 0.095 cm^−1/° C. and 0.095 ± 0.015 cm^−1/° C.
Transition Temperature, High Transition (erythrocyte membranes; [5]): 35 °C and 35.4 ± 1.5 °C
Transition Temperature, Low Transition (erythrocyte membranes; [5]): 15 °C and 15.3 ± 0.8 °C
Transition Temperature, Middle Transition (erythrocyte membranes; [5]): 26 °C and 26.0 ± 0.8 °C
